Counter-ions that a name gives are not always drawn.

One assay deals with T1, MPO (purified from human polynuclear leukocytes) (Homo sapiens, UniProt P05164).
T1 construct: purified from human polynuclear leukocytes; purchased Calbiochem/EMD Biosciences; host or cells: human polynuclear leukocytes (natural source)
T1 sequence (P05164 279-745 limits assumed): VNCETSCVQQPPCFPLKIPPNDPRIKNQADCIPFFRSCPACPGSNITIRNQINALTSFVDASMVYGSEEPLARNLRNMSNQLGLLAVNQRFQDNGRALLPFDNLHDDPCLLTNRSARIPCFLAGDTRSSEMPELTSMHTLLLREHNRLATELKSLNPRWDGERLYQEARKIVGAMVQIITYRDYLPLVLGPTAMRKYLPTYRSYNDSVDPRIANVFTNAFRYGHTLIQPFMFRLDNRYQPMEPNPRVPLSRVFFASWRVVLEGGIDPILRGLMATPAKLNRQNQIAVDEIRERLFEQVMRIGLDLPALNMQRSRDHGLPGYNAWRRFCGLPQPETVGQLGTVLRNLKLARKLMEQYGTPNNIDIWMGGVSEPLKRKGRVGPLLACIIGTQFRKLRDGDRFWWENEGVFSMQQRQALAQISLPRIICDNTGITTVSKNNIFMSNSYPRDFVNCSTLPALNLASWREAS
T1 sequence (P05164 165-273 limits assumed): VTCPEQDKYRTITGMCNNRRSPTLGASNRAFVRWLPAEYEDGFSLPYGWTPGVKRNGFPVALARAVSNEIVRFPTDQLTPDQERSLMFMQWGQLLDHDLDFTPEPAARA
In words: MPO Amplex Red Activity Assay. It is filed as biochemical. As to conditions: Table 1, 2 μM H2O2, pH 7.4. The procedure, abridged:
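Human leukocyte MPO […] oxidises 30 μM Amplex Red with 2 μM H2O2 in 50 mM NaPi pH 7.4, 150 mM NaCl, 1 mM DTPA, 2% DMSO. Resorufin fluorescence (ex 530/em 580 nm) read every 20 s, minus catalase background. kobs from the first 600 s, corrected for auto-inactivation, fit versus [I] for kinact/KI.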
In the case of `COc1cccc(-c2cc(=O)[nH]c(=S)n2CCN)c1` [Example 264, 1-(2-aminoethyl)-6-(3-methoxyphenyl)-2-thioxo-2,3-dihydropyrimidin-4(1H)-one hydrochloride], the “MPO kinact/Ki” value is given as 3620 1/s per M.

Regarding `COCCn1c(-c2cccc(OC)c2)cc(=O)[nH]c1=S` [Example 293, 1-(2-methoxyethyl)-6-(3-methoxyphenyl)-2-thioxo-2,3-dihydropyrimidin-4(1H)-one], the “MPO kinact/Ki” value is 1810 1/s per M.

As to `COc1ccc(-c2cc(=O)[nH]c(=S)n2CC2CCCN2C(=N)N)c(OC)c1` (stereo not drawn) [Example 258, 2-{[6-(2,4-dimethoxyphenyl)-4-oxo-2-thioxo-3,4-dihydropyrimidin-1(2H)-yl]methyl}pyrrolidine-1-carboximidamide trifluoroacetate], the “MPO kinact/Ki” value is on record as 1460 1/s per M.

As to `COCCn1c(-c2cnc3ccccc3c2)cc(=O)[nH]c1=S` [Example 320, 1-(2-methoxyethyl)-6-quinolin-3-yl-2-thioxo-2,3-dihydropyrimidin-4(1H)-one], the “MPO kinact/Ki” value is given as 2390 1/s per M.

As to `NCCn1c(-c2csc3ccccc23)cc(=O)[nH]c1=S` [Example 36, 1-(2-aminoethyl)-6-(1-benzothien-3-yl)-2-thioxo-2,3-dihydropyrimidin-4(1H)-one hydrochloride], the “MPO kinact/Ki” value is on record as 5980 1/s per M.

Take `COc1ncc(Cl)cc1-c1cc(=O)[nH]c(=S)n1CC(N)=O` [Example 145, 2-[6-(5-chloro-2-methoxypyridin-3-yl)-4-oxo-2-thioxo-3,4-dihydropyrimidin-1(2H)-yl]acetamide]: the “MPO kinact/Ki” value is reported as 5080 1/s per M.

As for `COc1cc(OC)c(-c2cc(=O)[nH]c(=S)n2CC(N)=O)cc1F` [Example 107, 2-[6-(5-fluoro-2,4-dimethoxyphenyl)-4-oxo-2-thioxo-3,4-dihydropyrimidin-1(2H)-yl]acetamide], the “MPO kinact/Ki” value is recorded as 1280 1/s per M.

With `COc1ccc(Cl)cc1-c1cc(=O)[nH]c(=S)n1CCCO` [Example 94, 6-(5-chloro-2-methoxyphenyl)-1-(3-hydroxypropyl)-2-thioxo-2,3-dihydropyrimidin-4(1H)-one], the “MPO kinact/Ki” value is on record as 6930 1/s per M.

With `COCCn1c(-c2ccc(OC)cc2OC)cc(=O)[nH]c1=S` [Example 182, 6-(2,4-dimethoxyphenyl)-1-(2-methoxyethyl)-2-thioxo-2,3-dihydropyrimidin-4(1H)-one], the “MPO kinact/Ki” value is 8200 1/s per M.

`COc1ccc(OC)c(-c2cc(=O)[nH]c(=S)n2CCO)c1` [Example 169, 6-(2,5-dimethoxyphenyl)-1-(2-hydroxyethyl)-2-thioxo-2,3-dihydropyrimidin-4(1H)-one]: the “MPO kinact/Ki” value is given as 17800 1/s per M.

For the compound `COCCn1c(-c2cccc(O)c2)cc(=O)[nH]c1=S` [Example 287], the “MPO kinact/Ki” value was 2130 1/s per M.

In the case of `COc1cc(Cl)ccc1-c1cc(=O)[nH]c(=S)n1CCN` [Example 62, 1-(2-aminoethyl)-6-(4-chloro-2-methoxyphenyl)-2-thioxo-2,3-dihydropyrimidin-4(1H)-one hydrochloride], the “MPO kinact/Ki” value is given as 6930 1/s per M.

Consider `COCCn1c(-c2ccc(Cl)cc2)cc(=O)[nH]c1=S` [Example 298, 6-(4-chlorophenyl)-1-(2-methoxyethyl)-2-thioxo-2,3-dihydropyrimidin-4(1H)-one], for which the “MPO kinact/Ki” value is listed as 1080 1/s per M.

`COc1cc(F)ccc1-c1cc(=O)[nH]c(=S)n1CC(N)=O` [Example 56, 2-[6-(4-fluoro-2-methoxyphenyl)-4-oxo-2-thioxo-3,4-dihydropyrimidin-1(2H)-yl]acetamide]: the “MPO kinact/Ki” value was 4770 1/s per M.

In the case of `COc1ccc(-c2cc(=O)[nH]c(=S)n2CCC2CCN(C(C)=O)CC2)c(OC)c1` [Example 153, 1-[2-(1-acetylpiperidin-4-yl)ethyl]-6-(2,4-dimethoxyphenyl)-2-thioxo-2,3-dihydropyrimidin-4(1H)-one], the “MPO kinact/Ki” value is given as 2200 1/s per M.

As for `COc1ccc(-c2cc(=O)[nH]c(=S)n2CCO)c2ccccc12` [Example 274, 1-(2-hydroxyethyl)-6-(4-methoxy-1-naphthyl)-2-thioxo-2,3-dihydropyrimidin-4(1H)-one], the “MPO kinact/Ki” value is given as 22800 1/s per M.

Take `COCCn1c(-c2ccc3[nH]ccc3c2)cc(=O)[nH]c1=S` [Example 303, 6-(1H-indol-5-yl)-1-(2-methoxyethyl)-2-thioxo-2,3-dihydropyrimidin-4(1H)-one]: the “MPO kinact/Ki” value is on record as 5270 1/s per M.

As for `COc1ccc(Cl)cc1-c1cc(=O)[nH]c(=S)n1C[C@@H](O)CO` [Example 116, 6-(5-chloro-2-methoxyphenyl)-1-[(2R)-2,3-dihydroxypropyl]-2-thioxo-2,3-dihydropyrimidin-4(1H)-one], the “MPO kinact/Ki” value is given as 9920 1/s per M.

As to `COc1cc2ccccc2cc1-c1cc(=O)[nH]c(=S)n1CCN` [Example 95, 1-(2-aminoethyl)-6-(3-methoxy-2-naphthyl)-2-thioxo-2,3-dihydropyrimidin-4(1H)-one hydrochloride], the “MPO kinact/Ki” value is reported as 15400 1/s per M.

On to `COc1ccc(-c2cc(=O)[nH]c(=S)n2CC(N)=O)c2ccccc12` [Example 205, 2-[6-(4-methoxy-1-naphthyl)-4-oxo-2-thioxo-3,4-dihydropyrimidin-1(2H)-yl]acetamide], for which the “MPO kinact/Ki” value is 4900 1/s per M.

Consider `COCCn1c(-c2ccc(Cl)cc2OC)cc(=O)[nH]c1=S` [Example 335, 6-(4-chloro-2-methoxyphenyl) 1-(2-methoxyethyl)-2-thioxo-2,3-dihydropyrimidin-4(1H)-one], for which the “MPO kinact/Ki” value is 9820 1/s per M.

Staying with this assay, now noted: Table 1A, 2 μM H2O2, pH 7.4.
For `COc1ccc(F)cc1-c1cc(=O)[nH]c(=S)n1CCCNC(=N)NC#N` [Example 447, 1-cyano-3-{3-[6-(5-fluoro-2-methoxyphenyl)-4-oxo-2-thioxo-3,4-dihydropyrimidin-1(2H)-yl]propyl}guanidine], the “MPO kinact/Ki” value is listed as 17200 1/s per M.

Turning to `COc1cc(Cl)ccc1-c1cc(=O)[nH]c(=S)n1CC(N)=O` [Example 417, 2-[6-(4-chloro-2-methoxyphenyl)-4-oxo-2-thioxo-3,4-dihydropyrimidin-1(2H)-yl]acetamide], the “MPO kinact/Ki” value was 9280 1/s per M.

On to `COc1cccc(OC)c1-c1cc(=O)[nH]c(=S)n1CC(N)=O` [Example 386, 2-[6-(2,6-dimethoxyphenyl)-4-oxo-2-thioxo-3,4-dihydropyrimidin-1(2H)-yl}acetamide], for which the “MPO kinact/Ki” value is 4960 1/s per M.

Turning to `COc1ccc(-c2cc(=O)[nH]c(=S)n2CC(N)=O)cc1` [Example 410, 2-[6-(4-methoxyphenyl)-4-oxo-2-thioxo-3,4-dihydropyrimidin-1(2H)-yl]acetamide], the “MPO kinact/Ki” value was 3150 1/s per M.

For `COc1ccc(-c2cc(=O)[nH]c(=S)n2CC(=O)N[C@H](C)CN)c(OC)c1` [Example 401, N-[(2R)-1-aminopropan-2-yl]-2-[6-(2,4-dimethoxyphenyl)-4-oxo-2-thioxo-3,4-dihydropyrimidin-1(2H)-yl]acetamide], the “MPO kinact/Ki” value is 4060 1/s per M.

On to `COc1ccc(F)cc1-c1cc(=O)[nH]c(=S)n1CCCN(C)C(=N)N` [Example 375, 1-{3-[6-(5-fluoro-2-methoxyphenyl)-4-oxo-2-thioxo-3,4-dihydropyrimidin-1(2H)yl]propyl}-1-methylguanidine], for which the “MPO kinact/Ki” value was 11300 1/s per M.
